One block for each compound: values may come before it.
Assays:
CCNK = assay: NanoLuc-CCNK degradation assay (HEK293T_Nluc_CCNK-tagged cells); type: cell-based; conditions: 4 h incubation, HEK293T_Nluc_CCNK-tagged cells; for DC50: read-out: NanoLuc-CCNK degradation DC50 Activity Class
Method: The assay helps to elucidate the mechanistic explanation of the cell killing effect of the compounds of the present invention. Cyclin K is fused to a nanoluciferase, light emission is measured as a proxy of Cyclin K abundance. Potency of Cyclin K degradation and cytotoxicity of KBM7 correlate extremely well, further supporting Cyclin K degradation being the main driver of the cell killing, as opposed to inhibition of CDK12 catalytic activity.
HEK293T_Nluc_CCNK-tagged cells were engineered by integrating a nanoluciferase tag at the N-terminus of the endogenous locus of CCNK using CRISPR-Cas9 technology. Briefly, 5.5 million HEK293T cells were co-transfected by PEI with a 1:1 ratio of cutting vector (sgRNA: […]) and repair template (4 μg total plasmid) as previously described (Brand and Winter, 2019). The repair sequence comprises a cassette of puromycinR-P2A-HA-Nluc-(G4S)3 (P2A: self-cleaving peptide 2A, HA: HA-tag, (G4S)3: flexible linker), surrounded by 20-nucleotide microhomologies matching the genomic locus. After 3 days of incubation, the recombinant population was selected by puromycin treatment (2 μg/ml, 5-day treatment). A monoclonal population was obtained by limiting dilution and cassette integration validated by Sanger sequencing.
HEK293T_Nluc_CCNK-tagged cells were seeded in a white opaque 384-well plate at a density of 8000 cells per well in duplicate, in full medium (Opti-MEM I+4% FBS+1% PS). Cells were treated with compounds in a 10-point titration (range: 0 to 10 μM, 1:4 dilution). After 4 h of incubation, Nano-Glo substrate (Promega), pre-diluted in serum-free medium (Opti-MEM I), was added to the cells (1:500 final dilution). The luminescence signal was directly measured using the multimode plate reader EnVision 2105 (Perkin Elmer).

[1] = tested on: KBM7 cells harboring a hypomorphic UBE2M mutation; assay: KBM7 CTG EC50 assay (UBE2M knock-out); type: cell-based; conditions: Homo sapiens, KBM-7; 72 h incubation, CellTiter-Glo; read-out: KBM7 CTG EC50 (UBE2M knock-out) Activity Class
Excerpt: (§1) This is a cell viability assay to measure the desired therapeutic effect, i.e. killing of cancer cells. The UBE2M mutant cell line has impaired activity of the Cullin-RING ligase system due to a hypomorphic mutation in UBE2M, which is required for activation of these E3 ligases. By comparison with WT cells, it is possible to estimate the contribution of Cyclin K degradation (which is reduced in UBE2M mut cells) compared to kinase inhibition of CDK12 (which is unaffected in UBE2M mut cells). Since the UBE2M mutation only reduces CRL function without fully abrogating it, this assay may slightly underestimate the effect of degradation because, at high compound concentrations, degradation may still be observed.
(§2) KBM7 cells (wild-type or harboring α hypomorphic UBE2M mutation (Mayor-Ruiz et al., 2019)) were seeded in a white opaque 384-well plate at a density of 1000 cells per well in duplicate, in full medium (IMDM+10% FBS+1% penicillin-streptomycin). Cells were treated with compounds in a 10-point titration with a dilution factor of 1:4 (range: 0 to 20 μM). After 72 h of incubation, the cell viability was determined using the CellTiter-Glo® 2.0 reactant (Promega), pre-diluted 1:4 in mQ water. The luminescence signal was measured using the multimode plate reader EnVision 2105 (Perkin Elmer).

KBM7 cells (wild-type) = assay: KBM7 CTG EC50 assay (UBE2M wild-type); type: cell-based, human; conditions: for EC50: Homo sapiens, KBM-7, 72 h incubation, CellTiter-Glo, read-out: KBM7 CTG EC50 (UBE2M wild-type) Activity Class; for Ratio UBE2M WT to KO: ratio of anti-proliferative activity in KBM7 wild-type versus UBE2M knock-out cells (fold)
Excerpt: as §1, §2

[2] = target: T1, DDB1-CDK12/Cyclin K ternary complex (Homo sapiens, UniProt Q16531+Q9NYV4); assay: NanoBRET fold-change assay (HaloTag_CDK12 / NanoLuc_DDB1 in HEK293T); type: cell-based; conditions: 10 μM compound, 10 minutes
T1 construct: expressed in transfected cells; host or cells: HEK293T wildtype cells, transient PEI transfection
T1 sequence (Q9NYV4 whole entry): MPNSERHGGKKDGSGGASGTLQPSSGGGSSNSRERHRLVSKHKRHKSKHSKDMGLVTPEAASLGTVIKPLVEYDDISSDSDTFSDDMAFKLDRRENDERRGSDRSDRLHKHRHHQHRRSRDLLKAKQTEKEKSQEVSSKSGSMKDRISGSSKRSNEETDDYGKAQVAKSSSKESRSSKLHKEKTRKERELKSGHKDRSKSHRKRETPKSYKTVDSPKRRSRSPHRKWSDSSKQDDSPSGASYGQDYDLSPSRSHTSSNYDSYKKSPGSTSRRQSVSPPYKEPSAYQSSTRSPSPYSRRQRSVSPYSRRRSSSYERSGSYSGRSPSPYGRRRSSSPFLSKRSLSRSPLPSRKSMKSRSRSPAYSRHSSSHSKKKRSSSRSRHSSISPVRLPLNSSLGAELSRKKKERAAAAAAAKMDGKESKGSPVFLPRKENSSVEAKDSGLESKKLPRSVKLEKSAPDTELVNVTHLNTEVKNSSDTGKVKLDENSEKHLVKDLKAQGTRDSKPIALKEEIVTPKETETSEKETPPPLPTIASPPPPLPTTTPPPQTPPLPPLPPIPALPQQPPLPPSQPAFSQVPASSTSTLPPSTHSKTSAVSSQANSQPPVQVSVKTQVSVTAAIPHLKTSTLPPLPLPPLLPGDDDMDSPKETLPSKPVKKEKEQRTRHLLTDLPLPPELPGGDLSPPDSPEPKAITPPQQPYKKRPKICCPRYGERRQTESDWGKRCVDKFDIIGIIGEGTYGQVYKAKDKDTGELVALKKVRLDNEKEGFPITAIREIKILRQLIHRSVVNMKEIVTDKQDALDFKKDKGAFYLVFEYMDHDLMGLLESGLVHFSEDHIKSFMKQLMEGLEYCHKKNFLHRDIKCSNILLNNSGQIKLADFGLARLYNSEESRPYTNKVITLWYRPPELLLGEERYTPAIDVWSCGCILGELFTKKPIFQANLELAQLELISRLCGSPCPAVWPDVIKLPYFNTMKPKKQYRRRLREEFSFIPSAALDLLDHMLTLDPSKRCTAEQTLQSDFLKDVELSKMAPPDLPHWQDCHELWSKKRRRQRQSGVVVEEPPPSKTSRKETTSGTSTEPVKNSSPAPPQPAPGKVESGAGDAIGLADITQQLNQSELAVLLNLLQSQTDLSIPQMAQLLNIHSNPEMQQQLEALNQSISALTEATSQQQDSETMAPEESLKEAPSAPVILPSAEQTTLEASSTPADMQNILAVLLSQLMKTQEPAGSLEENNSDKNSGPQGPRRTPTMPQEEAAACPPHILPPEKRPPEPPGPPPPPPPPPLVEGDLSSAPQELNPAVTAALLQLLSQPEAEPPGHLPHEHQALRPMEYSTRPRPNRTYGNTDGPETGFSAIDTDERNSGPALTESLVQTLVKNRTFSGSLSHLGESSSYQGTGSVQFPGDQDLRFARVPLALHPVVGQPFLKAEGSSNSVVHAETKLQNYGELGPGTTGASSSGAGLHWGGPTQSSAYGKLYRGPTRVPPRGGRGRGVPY
T1 sequence (Q16531 whole entry): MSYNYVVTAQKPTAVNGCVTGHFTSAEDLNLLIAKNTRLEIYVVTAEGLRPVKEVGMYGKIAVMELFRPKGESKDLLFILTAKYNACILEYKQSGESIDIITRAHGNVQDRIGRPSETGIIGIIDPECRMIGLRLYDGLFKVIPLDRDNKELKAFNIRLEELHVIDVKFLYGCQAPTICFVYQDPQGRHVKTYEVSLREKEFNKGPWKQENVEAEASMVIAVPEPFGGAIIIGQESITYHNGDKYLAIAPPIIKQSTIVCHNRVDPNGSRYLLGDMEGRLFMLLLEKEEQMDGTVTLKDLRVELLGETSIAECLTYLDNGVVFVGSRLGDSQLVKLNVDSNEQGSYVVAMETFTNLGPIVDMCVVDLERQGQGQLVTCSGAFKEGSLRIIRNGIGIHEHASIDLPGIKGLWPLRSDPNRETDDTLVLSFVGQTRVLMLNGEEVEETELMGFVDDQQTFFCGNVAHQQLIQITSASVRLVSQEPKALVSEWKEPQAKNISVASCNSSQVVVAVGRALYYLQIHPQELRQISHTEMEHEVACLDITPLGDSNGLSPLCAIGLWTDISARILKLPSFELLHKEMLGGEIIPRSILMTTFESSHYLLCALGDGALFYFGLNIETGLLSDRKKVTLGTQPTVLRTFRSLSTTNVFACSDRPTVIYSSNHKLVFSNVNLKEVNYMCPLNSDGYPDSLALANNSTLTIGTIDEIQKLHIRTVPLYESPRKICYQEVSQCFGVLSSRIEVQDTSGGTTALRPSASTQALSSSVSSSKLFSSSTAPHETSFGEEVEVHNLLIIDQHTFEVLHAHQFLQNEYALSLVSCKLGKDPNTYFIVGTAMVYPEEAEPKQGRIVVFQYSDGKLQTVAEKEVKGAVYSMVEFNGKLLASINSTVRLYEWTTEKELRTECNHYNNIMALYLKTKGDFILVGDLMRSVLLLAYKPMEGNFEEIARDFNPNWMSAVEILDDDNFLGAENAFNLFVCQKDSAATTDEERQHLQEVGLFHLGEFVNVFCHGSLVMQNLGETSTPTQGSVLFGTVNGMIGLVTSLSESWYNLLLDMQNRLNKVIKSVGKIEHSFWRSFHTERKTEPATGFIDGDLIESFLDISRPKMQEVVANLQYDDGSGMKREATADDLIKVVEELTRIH
T1 sequence (O75909 whole entry partner): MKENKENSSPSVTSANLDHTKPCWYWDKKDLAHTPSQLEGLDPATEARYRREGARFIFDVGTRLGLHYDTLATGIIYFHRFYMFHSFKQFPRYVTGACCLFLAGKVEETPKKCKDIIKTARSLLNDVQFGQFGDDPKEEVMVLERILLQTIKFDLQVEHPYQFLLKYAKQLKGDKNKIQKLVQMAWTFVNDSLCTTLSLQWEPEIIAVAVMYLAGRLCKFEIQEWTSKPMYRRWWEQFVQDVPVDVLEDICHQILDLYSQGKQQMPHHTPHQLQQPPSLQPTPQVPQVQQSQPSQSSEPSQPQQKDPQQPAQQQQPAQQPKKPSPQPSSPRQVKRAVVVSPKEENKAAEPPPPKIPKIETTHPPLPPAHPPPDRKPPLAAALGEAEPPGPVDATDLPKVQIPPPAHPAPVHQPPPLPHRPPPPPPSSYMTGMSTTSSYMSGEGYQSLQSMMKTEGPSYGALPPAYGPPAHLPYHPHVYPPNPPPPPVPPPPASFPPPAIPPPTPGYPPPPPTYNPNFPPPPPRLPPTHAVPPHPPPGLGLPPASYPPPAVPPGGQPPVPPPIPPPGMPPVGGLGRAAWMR
Method: This assay measures the interaction/recruitment of CDK12/Cyclin K to DDB1, mechanistically validating the molecular glue pharmacology.
HEK293T wildtype cells are seeded 800 k cells/well (DMEM+10% FBS+1% PS) in a 6-well plate and allowed to attach for ˜7 hours followed by a transient transfection of 1.5 μg HaloTag_CDK12 Plasmid [Table 1] and 0.15 μg NanoLuc_DDB1 plasmid [Table 1] per well using PEI. Cells are incubated at 37° C., 5% CO2, harvested after 24 hours and resuspended in assay media (Opti-MEM Reduced serum media, no phenol red, 4% FBS, 1% PS). Cells are adjusted to 2.3×10^5 cells/ml and treated with HaloTag 618 Ligand at 100 nM or DMSO. 8000 cells are seeded per well in triplicates per compound in a white-walled 384-well plate, one negative control treated with DMSO instead of HaloTag 618 Ligand is seeded in triplicates and the 384-well plate is incubated at 37° C., 5% CO2 overnight. Compound stock solutions are prepared in Opti-MEM−/− (Opti-MEM I Reduced serum media, no phenol red) at 8× and used to treat the cells at a final concentration of 1× at 10 μM. Cells and compounds are incubated for 10 minutes at room temperature followed by addition of NanoBRET Nano-Glo substrate following manufacturer's protocols. The plate is shaken for 30 sec followed by immediate measurement of donor emission (NanoBRET Blue at 460 nm) and acceptor emission (BRET Deep Red at 647 nm) for 0.5 s.

SMILES: Cc1ccc2c(CC(=O)Nc3ccc(Cl)cn3)coc2c1C [Example 3-55, N-(5-chloropyridin-2-yl)-2-(6,7-dimethylbenzofuran-3-yl)acetamide]
NanoLuc-CCNK degradation DC50 Activity Class (CCNK): C (1.0 μM≤DC50<0.50 μM)
EC50 [1]: 1 to 10 µM
EC50 (KBM7 cells (wild-type)): 0.25 to 0.5 µM
Ratio UBE2M WT to KO (KBM7 cells (wild-type)): 9.2
NanoBRET fold-change Activity Class [2]: B (3-4 fold increase)

SMILES: Cc1ccc2c(CC(=O)Nc3ncc(C(C)C)s3)coc2c1C [Example 3-2, 2-(6,7-dimethylbenzofuran-3-yl)-N-(5-isopropylthiazol-2-yl)acetamide]
DC50 (CCNK): ≤ 0.1 µM
EC50 [1]: 0.5 to 1 µM
EC50 (KBM7 cells (wild-type)): ≤ 0.25 µM
Ratio UBE2M WT to KO (KBM7 cells (wild-type)): 12.7
NanoBRET fold-change Activity Class [2]: B (3-4 fold increase)

SMILES: CC(C(=O)Nc1ncc(C(F)(F)F)s1)c1cc2ccccc2s1 (stereo not shown) [Example 3-11, 2-(benzo[b]thiophen-2-yl)-N-(5-(trifluoromethyl)thiazol-2-yl)propanamide]
DC50 (CCNK): ≤ 0.1 µM
EC50 [1]: ≤ 0.25 µM
EC50 (KBM7 cells (wild-type)): ≤ 0.25 µM
Ratio UBE2M WT to KO (KBM7 cells (wild-type)): 9.4
NanoBRET fold-change Activity Class [2]: A (greater than 4-fold increase)

SMILES: Cc1cc(NC(=O)Cc2cn3cc(F)ccc3n2)n[nH]1 [Example 3-56, 2-(6-fluoroimidazo[1,2-a]pyridin-2-yl)-N-(5-methyl-1H-pyrazol-3-yl)acetamide]
DC50 (CCNK): > 10 µM
EC50 [1]: > 10 µM
EC50 (KBM7 cells (wild-type)): 0.25 to 0.5 µM
Ratio UBE2M WT to KO (KBM7 cells (wild-type)): >10
NanoBRET fold-change Activity Class [2]: C (2-3 fold increase)

SMILES: O=C(Nc1ncc(C(F)(F)F)s1)C1CC(=O)N(c2ccc(Cl)cc2)C1 (stereo not shown) [Example 3-18, 1-(4-chlorophenyl)-5-oxo-N-(5-(trifluoromethyl)thiazol-2-yl)pyrrolidine-3-carboxamide]
NanoLuc-CCNK degradation DC50 Activity Class (CCNK): D (10 μM≤DC50<1.0 μM)
EC50 [1]: > 10 µM
EC50 (KBM7 cells (wild-type)): ≤ 0.25 µM
Ratio UBE2M WT to KO (KBM7 cells (wild-type)): >10
NanoBRET fold-change Activity Class [2]: C (2-3 fold increase)

SMILES: CC(C)c1cc(NC(=O)Cc2cn3cc(F)ccc3n2)n[nH]1 [Example 3-57, 2-(6-fluoroimidazo[1,2-a]pyridin-2-yl)-N-(5-isopropyl-1H-pyrazol-3-yl)acetamide]
NanoLuc-CCNK degradation DC50 Activity Class (CCNK): B (0.50 μM≤DC50<0.10 μM)
EC50 [1]: 1 to 10 µM
EC50 (KBM7 cells (wild-type)): ≤ 0.25 µM
Ratio UBE2M WT to KO (KBM7 cells (wild-type)): 146.3
NanoBRET fold-change Activity Class [2]: B (3-4 fold increase)

SMILES: Cc1ccc2c(CC(=O)Nc3cc(Cl)[nH]n3)coc2c1C [Example 3-49, N-(5-chloro-1H-pyrazol-3-yl)-2-(6,7-dimethylbenzofuran-3-yl)acetamide]
NanoLuc-CCNK degradation DC50 Activity Class (CCNK): B (0.50 μM≤DC50<0.10 μM)
EC50 [1]: 1 to 10 µM
EC50 (KBM7 cells (wild-type)): ≤ 0.25 µM
Ratio UBE2M WT to KO (KBM7 cells (wild-type)): 37.3
NanoBRET fold-change Activity Class [2]: B (3-4 fold increase)

SMILES: O=C(Nc1ncc(C(F)(F)F)s1)C1CC(=O)N(Cc2ccc(Cl)cc2)C1 (stereo not shown) [Example 3-28, 1-(4-chlorobenzyl)-5-oxo-N-(5-(trifluoromethyl)thiazol-2-yl)pyrrolidine-3-carboxamide]
NanoLuc-CCNK degradation DC50 Activity Class (CCNK): C (1.0 μM≤DC50<0.50 μM)
EC50 [1]: 1 to 10 µM
EC50 (KBM7 cells (wild-type)): ≤ 0.25 µM
Ratio UBE2M WT to KO (KBM7 cells (wild-type)): 42.7
NanoBRET fold-change Activity Class [2]: B (3-4 fold increase)

The next lines start with results.

DC50 (CCNK): > 10 µM
NanoBRET fold-change Activity Class [2]: B (3-4 fold increase)
SMILES: O=C(Cc1cccc2ncccc12)Nc1ncc(C(F)(F)F)s1 [Example 3-13, 2-(quinolin-5-yl)-N-(5-(trifluoromethyl)thiazol-2-yl)acetamide]
EC50 [1]: > 10 µM
EC50 (KBM7 cells (wild-type)): 1 to 10 µM
Ratio UBE2M WT to KO (KBM7 cells (wild-type)): >4

NanoLuc-CCNK degradation DC50 Activity Class (CCNK): D (10 μM≤DC50<1.0 μM)
NanoBRET fold-change Activity Class [2]: C (2-3 fold increase)
SMILES: O=C(Cc1cc2ccccc2o1)Nc1ncc(C(F)(F)F)s1 [Example 3-41, 2-(benzofuran-2-yl)-N-(5-(trifluoromethyl)thiazol-2-yl)acetamide]
EC50 [1]: > 10 µM
EC50 (KBM7 cells (wild-type)): 1 to 10 µM
Ratio UBE2M WT to KO (KBM7 cells (wild-type)): >2

NanoLuc-CCNK degradation DC50 Activity Class (CCNK): D (10 μM≤DC50<1.0 μM)
NanoBRET fold-change Activity Class [2]: B (3-4 fold increase)
SMILES: O=C(Cc1c[nH]c2nccc(Cl)c12)Nc1ncc(C(F)(F)F)s1 [Example 3-39, 2-(4-chloro-1H-pyrrolo[2,3-b]pyridin-3-yl)-N-(5-(trifluoromethyl)thiazol-2-yl)acetamide]
EC50 [1]: > 10 µM
EC50 (KBM7 cells (wild-type)): 1 to 10 µM
Ratio UBE2M WT to KO (KBM7 cells (wild-type)): >4

DC50 (CCNK): ≤ 0.1 µM
NanoBRET fold-change Activity Class [2]: C (2-3 fold increase)
SMILES: O=C(Cc1cc2ccccc2s1)Nc1ncc(C(F)(F)F)s1 [Example 3-10, 2-(benzo[b]thiophen-2-yl)-N-(5-(trifluoromethyl)thiazol-2-yl)acetamide]
EC50 [1]: 1 to 10 µM
EC50 (KBM7 cells (wild-type)): ≤ 0.25 µM
Ratio UBE2M WT to KO (KBM7 cells (wild-type)): 23.6

DC50 (CCNK): ≤ 0.1 µM
NanoBRET fold-change Activity Class [2]: B (3-4 fold increase)
SMILES: O=C(Cc1ccc2ccncc2c1)Nc1ncc(C(F)(F)F)s1 [Example 3-32, 2-(isoquinolin-7-yl)-N-(5-(trifluoromethyl)thiazol-2-yl)acetamide]
EC50 [1]: 1 to 10 µM
EC50 (KBM7 cells (wild-type)): ≤ 0.25 µM
Ratio UBE2M WT to KO (KBM7 cells (wild-type)): 115.9

DC50 (CCNK): > 10 µM
NanoBRET fold-change Activity Class [2]: A (greater than 4-fold increase)
SMILES: O=C(Cc1cccc2ccncc12)Nc1ncc(C(F)(F)F)s1 [Example 3-33, 2-(isoquinolin-8-yl)-N-(5-(trifluoromethyl)thiazol-2-yl)acetamide]
EC50 [1]: 1 to 10 µM
EC50 (KBM7 cells (wild-type)): ≤ 0.25 µM
Ratio UBE2M WT to KO (KBM7 cells (wild-type)): 64.7
